Patent US20050080076A1 (Xanodyne Pharmacal, Inc., priority 2003, published 2005)
Where two headings read alike, the source gives them in different places.

Experiments:
[1] = target: Muscarinic M3 (Homo sapiens, UniProt P20309); test: Receptor binding, Muscarinic M3
Experimental: (§1) Receptor-ligand binding studies were performed as known to one skilled in the art. Compounds evaluated were LMP, the parent compound, the NDM LMP metabolite of LMP, and the sulfoxide metabolite of LMP. These studies verified receptor binding and affinity by the parent compound, as well as identified other potential receptors for the parent compound and its metabolites, and identified and verified receptors and receptor affinity for the metabolites.
(§2) Dopamine receptor affinity included binding to D1, D2, D3, D4, and D5 receptors. Serotonin receptor affinity included binding to 5-HT1A, 5-HT2A, 5-HT2B, 5-HT2, 5-HT5A, 5-HT6, and 5-HT7 receptors. Alpha adrenergic receptor affinity included binding to α1A, α1B, α1C, α2A, α2B, and α2C receptors. Muscarinic receptor affinity included binding to M1, M2, M3, M4, and M5 receptors. Binding to the histamine H1 receptor, the calcium ion channel receptor, and the sodium ion channel receptor were also evaluated. In each of the tables, the following abbreviations are used: LMP indicates the parent compound levomepromazine. NDM LMP indicates the N-desmethyl (N-desmethyl) metabolite. Sulfoxide indicates the sulfoxide metabolite. […] Ki (the inhibition constants of binding) indicate binding affinity.

[2] = target: T1, Serotonin 5-HT2C (Homo sapiens, UniProt P28335); test: Receptor binding, Serotonin 5-HT2C
T1 sequence (P28335 33-458): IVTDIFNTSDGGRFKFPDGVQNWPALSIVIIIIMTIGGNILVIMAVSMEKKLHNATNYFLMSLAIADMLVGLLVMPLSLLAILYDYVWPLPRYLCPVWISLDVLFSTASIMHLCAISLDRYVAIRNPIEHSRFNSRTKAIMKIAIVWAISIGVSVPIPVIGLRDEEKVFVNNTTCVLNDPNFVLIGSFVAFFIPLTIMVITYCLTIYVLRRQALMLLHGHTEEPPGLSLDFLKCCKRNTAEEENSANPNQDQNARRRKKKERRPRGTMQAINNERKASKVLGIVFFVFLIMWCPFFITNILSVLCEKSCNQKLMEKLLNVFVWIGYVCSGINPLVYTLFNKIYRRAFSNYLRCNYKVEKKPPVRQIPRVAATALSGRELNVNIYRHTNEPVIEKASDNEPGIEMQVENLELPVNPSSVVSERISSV
Experimental: as §1, §2

[3] = target: T2, Muscarinic M1 (Homo sapiens, UniProt P11229); test: Receptor binding, Muscarinic M1
T2 sequence (P11229 1-460): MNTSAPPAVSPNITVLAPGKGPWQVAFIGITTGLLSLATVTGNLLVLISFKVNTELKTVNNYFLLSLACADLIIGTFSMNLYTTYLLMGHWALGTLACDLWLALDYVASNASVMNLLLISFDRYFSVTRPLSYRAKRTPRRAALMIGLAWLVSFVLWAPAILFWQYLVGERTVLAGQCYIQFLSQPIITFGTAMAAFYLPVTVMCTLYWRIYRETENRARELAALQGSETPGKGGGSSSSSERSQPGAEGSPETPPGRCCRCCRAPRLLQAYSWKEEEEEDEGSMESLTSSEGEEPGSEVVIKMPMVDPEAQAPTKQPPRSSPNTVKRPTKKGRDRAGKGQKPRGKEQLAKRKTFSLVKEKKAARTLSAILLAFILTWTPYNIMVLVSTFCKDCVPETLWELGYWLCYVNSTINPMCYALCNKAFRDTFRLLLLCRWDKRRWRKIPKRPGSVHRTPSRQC
Experimental: as §1, §2

[4] = target: T3, Muscarinic M5 (Homo sapiens, UniProt P08912); test: Receptor binding, Muscarinic M5
T3 sequence (P08912 1-532): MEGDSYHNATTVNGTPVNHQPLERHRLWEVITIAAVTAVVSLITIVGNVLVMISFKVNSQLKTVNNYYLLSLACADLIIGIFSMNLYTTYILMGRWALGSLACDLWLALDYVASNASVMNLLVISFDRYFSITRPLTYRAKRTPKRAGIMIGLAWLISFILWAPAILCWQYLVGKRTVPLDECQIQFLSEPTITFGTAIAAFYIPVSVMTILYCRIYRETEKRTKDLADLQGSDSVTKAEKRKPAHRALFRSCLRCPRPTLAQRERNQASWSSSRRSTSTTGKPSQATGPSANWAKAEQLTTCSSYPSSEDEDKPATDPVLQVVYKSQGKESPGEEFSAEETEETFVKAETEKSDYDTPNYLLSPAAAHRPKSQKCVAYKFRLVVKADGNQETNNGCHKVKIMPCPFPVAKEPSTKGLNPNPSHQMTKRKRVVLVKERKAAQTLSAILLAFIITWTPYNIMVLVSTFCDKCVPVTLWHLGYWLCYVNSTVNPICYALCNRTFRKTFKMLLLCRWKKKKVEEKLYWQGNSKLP
Experimental: as §1, §2

[5] = test system: muscarinic receptors; test: Receptor affinity summary, muscarinic receptors; assay type: binding; conditions: for binding affinity to muscarinic receptors (in words): all receptors; for Relative Affinity: Muscarinic
Experimental: as §1, §2

[6] = test system: α1 adrenergic receptors; test: Receptor affinity summary, α1 adrenergic receptors; assay type: binding; conditions: for binding to all α1 adrenergic receptors (in words): α1A, α1B, and α1C; for Relative Affinity: α1-Adrenergic
Experimental: as §1, §2

[7] = target: T4, Adrenergic α2B (Homo sapiens, UniProt P18089); test: Receptor binding, Adrenergic α2B
T4 sequence (P18089 1-450): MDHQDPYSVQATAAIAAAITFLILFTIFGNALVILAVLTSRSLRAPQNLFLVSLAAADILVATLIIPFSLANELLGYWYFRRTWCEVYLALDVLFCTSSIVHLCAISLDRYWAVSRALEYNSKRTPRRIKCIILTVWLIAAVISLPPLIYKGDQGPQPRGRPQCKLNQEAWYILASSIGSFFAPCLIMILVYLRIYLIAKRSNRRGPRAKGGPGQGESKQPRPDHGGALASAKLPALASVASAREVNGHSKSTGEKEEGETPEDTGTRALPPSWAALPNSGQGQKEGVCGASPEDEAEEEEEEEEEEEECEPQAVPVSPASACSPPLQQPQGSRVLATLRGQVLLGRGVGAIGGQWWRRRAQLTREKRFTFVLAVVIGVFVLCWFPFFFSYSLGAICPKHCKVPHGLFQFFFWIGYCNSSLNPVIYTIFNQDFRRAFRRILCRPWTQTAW
Experimental: as §1, §2

[8] = target: Serotonin 5-HT7 (Homo sapiens, UniProt P34969); test: Receptor binding, Serotonin 5-HT7
Experimental: as §1, §2

[9] = target: Sodium Channel; test: Receptor binding, Sodium Channel; set-up: key to Relative Affinity: ≧ indicates greater or equal affinity; = indicates about the same affinity; − indicates no affinity
Experimental: as §1, §2

[10] = target: Dopamine D3 (Homo sapiens, UniProt P35462); test: Receptor binding, Dopamine D3
Experimental: as §1, §2

[11] = target: Dopamine D5 (Homo sapiens, UniProt P21918); test: Receptor binding, Dopamine D5
Experimental: as §1, §2

Chain of Dopamine D5 (P21918 whole entry): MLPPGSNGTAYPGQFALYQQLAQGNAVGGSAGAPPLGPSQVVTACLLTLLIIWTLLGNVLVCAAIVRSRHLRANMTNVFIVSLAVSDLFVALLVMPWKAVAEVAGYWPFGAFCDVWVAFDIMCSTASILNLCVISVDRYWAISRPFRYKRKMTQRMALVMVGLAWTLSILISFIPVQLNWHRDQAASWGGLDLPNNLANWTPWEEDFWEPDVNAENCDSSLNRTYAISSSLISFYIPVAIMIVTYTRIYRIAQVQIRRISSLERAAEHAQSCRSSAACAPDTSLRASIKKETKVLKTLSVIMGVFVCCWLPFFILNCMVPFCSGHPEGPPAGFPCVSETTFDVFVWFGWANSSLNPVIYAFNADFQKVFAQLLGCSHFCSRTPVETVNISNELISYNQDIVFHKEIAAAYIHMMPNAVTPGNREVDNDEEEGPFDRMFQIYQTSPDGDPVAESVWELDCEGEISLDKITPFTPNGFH
Chain of Dopamine D3 (P35462 whole entry): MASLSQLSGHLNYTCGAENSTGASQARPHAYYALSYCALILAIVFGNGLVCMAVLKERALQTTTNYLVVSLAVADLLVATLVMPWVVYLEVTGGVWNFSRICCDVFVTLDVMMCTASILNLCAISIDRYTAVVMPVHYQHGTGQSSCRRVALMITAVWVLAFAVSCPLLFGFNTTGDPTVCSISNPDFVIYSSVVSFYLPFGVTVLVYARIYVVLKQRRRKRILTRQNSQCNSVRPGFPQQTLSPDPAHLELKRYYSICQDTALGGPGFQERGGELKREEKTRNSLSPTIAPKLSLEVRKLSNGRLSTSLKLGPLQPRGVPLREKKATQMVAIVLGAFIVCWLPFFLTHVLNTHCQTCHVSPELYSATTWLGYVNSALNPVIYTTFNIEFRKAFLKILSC
Chain of Serotonin 5-HT7 (P34969 whole entry): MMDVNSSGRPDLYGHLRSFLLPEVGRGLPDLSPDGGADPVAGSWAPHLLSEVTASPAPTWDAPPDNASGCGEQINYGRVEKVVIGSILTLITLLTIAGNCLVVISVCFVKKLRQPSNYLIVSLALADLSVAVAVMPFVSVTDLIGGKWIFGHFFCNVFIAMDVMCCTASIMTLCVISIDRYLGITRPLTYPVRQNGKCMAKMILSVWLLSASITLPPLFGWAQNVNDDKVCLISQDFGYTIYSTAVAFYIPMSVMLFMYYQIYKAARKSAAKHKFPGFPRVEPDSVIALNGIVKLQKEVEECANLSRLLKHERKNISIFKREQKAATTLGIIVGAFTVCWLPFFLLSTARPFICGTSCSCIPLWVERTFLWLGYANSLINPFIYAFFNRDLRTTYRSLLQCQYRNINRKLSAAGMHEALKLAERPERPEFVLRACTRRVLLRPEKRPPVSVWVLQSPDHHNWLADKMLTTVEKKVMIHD
Chain of Muscarinic M3 (P20309 whole entry): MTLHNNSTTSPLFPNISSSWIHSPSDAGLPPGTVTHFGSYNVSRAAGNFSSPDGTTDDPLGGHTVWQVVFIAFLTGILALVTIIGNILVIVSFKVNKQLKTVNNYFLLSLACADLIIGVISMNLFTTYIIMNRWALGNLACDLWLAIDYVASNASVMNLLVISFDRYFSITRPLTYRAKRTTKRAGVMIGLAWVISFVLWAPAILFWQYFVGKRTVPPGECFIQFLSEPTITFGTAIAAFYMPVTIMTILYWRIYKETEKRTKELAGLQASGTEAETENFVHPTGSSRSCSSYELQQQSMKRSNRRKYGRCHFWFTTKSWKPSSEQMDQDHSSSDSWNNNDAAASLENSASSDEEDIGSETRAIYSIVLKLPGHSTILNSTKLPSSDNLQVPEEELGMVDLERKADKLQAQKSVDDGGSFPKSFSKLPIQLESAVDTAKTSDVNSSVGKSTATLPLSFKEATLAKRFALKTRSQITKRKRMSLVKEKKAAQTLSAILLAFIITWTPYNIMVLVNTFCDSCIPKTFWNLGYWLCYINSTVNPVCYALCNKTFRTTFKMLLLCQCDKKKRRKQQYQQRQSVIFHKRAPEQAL

Row | Structure (SMILES) | Ki [1] [nM] | Ki [2] [nM] | Ki [3] [nM] | Ki [4] [nM] | binding affinity to muscarinic receptors (in words) [5] | binding to all α1 adrenergic receptors (in words) [6] | Ki [7] [nM] | Ki [8] [nM] | Ki ([9]; read-out: Ki) [nM] | Ki [10] [nM] | Ki [11] [nM] | Relative Affinity [5] | Relative Affinity [6] | Relative Affinity [9] | Ki [9]
1 | COc1ccc2c(c1)N(C[C@H](C)CN(C)C)c1ccccc1S2 [LMP, Levomepromazine] | 39 | 8 | 43 | 61 | moderate-to-high affinities | high binding | 25 | 24 | 1090 | 4 | 180 |  |  |  | 
2 | CNCC(C)CN1c2ccccc2Sc2ccc(OC)cc21 (stereo not drawn) [NDM LMP, R(+) 2-methoxy-10-2-methyl-3-monomethylaminopropyl phenothiazine] | 47 | 9 | 54 | 60 | moderate-to-high affinities | high binding | 48 | 18 | 643 | 5 | 243 | LMP = NDM LMP > sulfoxide | LMP = NDM LMP ≧ sulfoxide | NDM LMP > LMP | 
3 | COc1ccc2c(c1)N(C[C@H](C)CN(C)C)c1ccccc1[S+]2[O-] (stereo partly shown) [Sulfoxide, levomepromazine sulfoxide] | 551 | 1980 | 726 | 481 | low affinity | high binding | > 10000 | > 10000 | > 10000 | > 10000 | > 10000 | LMP = NDM LMP > sulfoxide | LMP = NDM LMP ≧ sulfoxide | − | no affinity was detected
